According to ChEMBL document CHEMBL1201862, “PubChem BioAssay data set” (2004):
Activity calls are given as the source filed them.

Experiments:
[1] = Luminescence Cell-Based Dose Retest to Confirm Inhibitors of Cancer Stem Cells. [Related pubchem assays (depositor defined):AID2717, AID2721]; format: functional; settings: Homo sapiens
[2] = growth suppression of PTEN-null colon cells, dose response, cell-based, HCT116 PTEN knockout (AID 1047); format: functional;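 further: HCT116 colon tumor cells with PTEN knocked out; cells exposed to compound for 60 hours before readout; potency for loss of cell viability measured by luminescence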
[3] = growth suppression of beta-catenin-knockout colon cells, dose response, cell-based, HCT116, human colon tumor (AID 1045); format: functional;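 further: HCT116 colon tumor cells with beta catenin knocked out; cells exposed to compound for 60 hours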
A-375 [4] = assay: A375 melanoma cell viability reduction, dose response, counter-screen for MITF modulator project, cherry-pick samples, set 2 (AID 540335); format: functional, cell-based; settings: Homo sapiens
[5] = target: T1, Microphthalmia-associated transcription factor (Homo sapiens, UniProt O75030); assay: TRPM1 promoter luciferase signal decrease, dose response, MITF inhibitor project, cell-based, SK-MEL-5, cherry-picked, set 3 (AID 493073); format: functional
T1 sequence (O75030 whole entry): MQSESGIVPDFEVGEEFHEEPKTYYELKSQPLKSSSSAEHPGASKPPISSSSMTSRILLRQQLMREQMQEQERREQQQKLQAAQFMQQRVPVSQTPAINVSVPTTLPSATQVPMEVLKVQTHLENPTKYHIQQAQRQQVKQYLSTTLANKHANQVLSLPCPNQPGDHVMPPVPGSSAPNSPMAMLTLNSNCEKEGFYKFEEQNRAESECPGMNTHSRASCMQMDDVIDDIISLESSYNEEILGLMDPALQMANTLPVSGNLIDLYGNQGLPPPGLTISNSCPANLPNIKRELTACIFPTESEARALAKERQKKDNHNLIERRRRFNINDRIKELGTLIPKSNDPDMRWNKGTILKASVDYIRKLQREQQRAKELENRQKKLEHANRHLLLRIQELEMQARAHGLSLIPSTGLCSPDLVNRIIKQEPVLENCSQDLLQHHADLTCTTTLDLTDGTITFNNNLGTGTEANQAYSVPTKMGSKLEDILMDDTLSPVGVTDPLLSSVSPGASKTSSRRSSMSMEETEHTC

BJ [6] = assay: cytotoxicity toward BJ-TERT-LT-ST fibroblasts, dose response, cell-based, RAS-independent, luminescence (AID 1935); format: functional; settings: Homo sapiens;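 further: BJ fibroblasts immortalized with TERT plus LT and ST oncogenes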
Cysteine protease ATG4B = Cysteine protease ATG4B (Homo sapiens, UniProt Q9Y4P1); assay: ATG4B protease inhibitors, dose response, biochemical, fluorescence, set 2 (AID 588584); format: functional
Cysteine protease ATG4B, sequence (Q9Y4P1 whole entry): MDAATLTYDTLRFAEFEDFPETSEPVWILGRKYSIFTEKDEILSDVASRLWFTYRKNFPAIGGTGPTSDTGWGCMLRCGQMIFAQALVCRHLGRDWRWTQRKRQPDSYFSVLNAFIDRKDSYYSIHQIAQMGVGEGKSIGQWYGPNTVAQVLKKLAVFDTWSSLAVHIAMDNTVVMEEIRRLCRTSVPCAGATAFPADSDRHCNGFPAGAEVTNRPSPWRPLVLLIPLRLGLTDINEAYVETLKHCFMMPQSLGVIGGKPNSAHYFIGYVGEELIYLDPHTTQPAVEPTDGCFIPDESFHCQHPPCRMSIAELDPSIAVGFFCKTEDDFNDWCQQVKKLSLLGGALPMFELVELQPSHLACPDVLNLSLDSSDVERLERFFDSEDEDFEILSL

Phospholipase A2 = Phospholipase A2 (Homo sapiens, UniProt P04054); assay: PLA2 enzyme inhibitors, dose response, counter-screen for ATG4B inhibitor project, biochemical, set 2 (AID 588586); format: functional
Phospholipase A2, sequence (P04054 whole entry): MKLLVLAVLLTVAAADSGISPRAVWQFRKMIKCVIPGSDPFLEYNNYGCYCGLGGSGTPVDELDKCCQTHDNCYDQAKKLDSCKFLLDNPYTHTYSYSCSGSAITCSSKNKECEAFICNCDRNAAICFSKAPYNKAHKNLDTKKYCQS

[7] = control 3'UTR Renilla luciferase suppression, dose response, counter-screen for Shn3 inhibitor project, cell-based, Clone20-Shn3RL, cherry-picked (AID 624133); format: functional
BJ [8] = assay: cytotoxicity toward BJ-TERT fibroblasts, dose response, cell-based, RAS-independent, luminescence (AID 1933); format: functional; settings: Homo sapiens
BJ [9] = assay: cells; format: functional, cell-based; settings: Homo sapiens
[10] = Shn3 3'UTR reporter inhibitors, dose response, cell-based, Clone20 osteoblasts, firefly luciferase, cherry-picked (AID 624132); format: functional;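 further: firefly luciferase luminescence from reporter carrying the Shn3 3'UTR in osteoblasts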
[11] = cytotoxicity toward DRD oncogenic fibroblasts, dose response, cell-based, non-viral oncogenic, luminescence (AID 1934); format: functional; settings: Homo sapiens
Caspase-3 = target: T2, Caspase-3 (Homo sapiens, UniProt P42574); assay: caspase-3 inhibitors as off-family protease, SAR follow-up, selectivity assay for SENP protease inhibitor project, biochemical, luminescence, set 2 (AID 588599); format: functional
T2 sequence (P42574 whole entry): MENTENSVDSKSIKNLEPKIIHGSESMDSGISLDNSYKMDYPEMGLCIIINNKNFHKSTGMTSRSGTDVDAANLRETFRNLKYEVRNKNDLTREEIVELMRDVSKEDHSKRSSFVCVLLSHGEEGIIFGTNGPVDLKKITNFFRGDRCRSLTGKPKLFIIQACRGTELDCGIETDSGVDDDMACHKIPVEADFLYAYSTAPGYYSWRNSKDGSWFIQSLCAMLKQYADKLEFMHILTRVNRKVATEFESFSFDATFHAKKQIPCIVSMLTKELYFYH

[12] = target: T3, Sentrin-specific protease 6 (Homo sapiens, UniProt Q9GZR1); assay: SENP6 protease inhibitors, SAR follow-up, biochemical, luminescence, set 2 (AID 588598); format: functional
T3 sequence (Q9GZR1 whole entry): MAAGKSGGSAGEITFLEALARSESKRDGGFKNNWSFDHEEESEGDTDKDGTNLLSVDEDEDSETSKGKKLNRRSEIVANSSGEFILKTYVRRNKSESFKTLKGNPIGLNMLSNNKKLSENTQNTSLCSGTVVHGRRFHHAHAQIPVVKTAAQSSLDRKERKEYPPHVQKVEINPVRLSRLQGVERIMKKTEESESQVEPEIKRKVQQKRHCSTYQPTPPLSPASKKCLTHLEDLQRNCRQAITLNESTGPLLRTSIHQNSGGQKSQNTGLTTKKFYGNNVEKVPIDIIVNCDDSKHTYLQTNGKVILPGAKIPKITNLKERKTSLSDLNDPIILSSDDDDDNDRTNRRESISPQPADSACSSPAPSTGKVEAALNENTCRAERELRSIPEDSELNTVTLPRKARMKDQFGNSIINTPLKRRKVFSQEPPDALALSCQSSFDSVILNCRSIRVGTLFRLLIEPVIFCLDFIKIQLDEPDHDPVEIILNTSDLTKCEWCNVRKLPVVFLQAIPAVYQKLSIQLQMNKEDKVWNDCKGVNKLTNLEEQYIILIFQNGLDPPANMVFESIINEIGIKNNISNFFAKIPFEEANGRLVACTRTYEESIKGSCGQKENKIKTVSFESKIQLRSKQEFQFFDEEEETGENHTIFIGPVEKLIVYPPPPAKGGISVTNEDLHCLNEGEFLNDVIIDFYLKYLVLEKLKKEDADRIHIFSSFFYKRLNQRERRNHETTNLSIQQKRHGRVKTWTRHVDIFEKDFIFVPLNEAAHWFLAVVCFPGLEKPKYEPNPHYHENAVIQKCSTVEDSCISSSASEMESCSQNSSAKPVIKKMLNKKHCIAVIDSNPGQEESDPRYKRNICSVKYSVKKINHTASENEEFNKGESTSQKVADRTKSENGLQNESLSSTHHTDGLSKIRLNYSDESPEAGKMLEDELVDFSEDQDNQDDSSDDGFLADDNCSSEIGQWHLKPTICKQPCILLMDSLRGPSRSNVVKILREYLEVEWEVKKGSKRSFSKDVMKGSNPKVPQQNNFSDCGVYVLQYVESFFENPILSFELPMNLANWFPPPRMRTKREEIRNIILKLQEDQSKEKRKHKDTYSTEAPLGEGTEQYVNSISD

[13] = target: T4, Sentrin-specific protease 7 (Homo sapiens, UniProt Q9BQF6); assay: SENP7 protease inhibitors, SAR follow-up, biochemical, luminescence, set 2 (AID 588600); format: functional
T4 sequence (Q9BQF6 whole entry): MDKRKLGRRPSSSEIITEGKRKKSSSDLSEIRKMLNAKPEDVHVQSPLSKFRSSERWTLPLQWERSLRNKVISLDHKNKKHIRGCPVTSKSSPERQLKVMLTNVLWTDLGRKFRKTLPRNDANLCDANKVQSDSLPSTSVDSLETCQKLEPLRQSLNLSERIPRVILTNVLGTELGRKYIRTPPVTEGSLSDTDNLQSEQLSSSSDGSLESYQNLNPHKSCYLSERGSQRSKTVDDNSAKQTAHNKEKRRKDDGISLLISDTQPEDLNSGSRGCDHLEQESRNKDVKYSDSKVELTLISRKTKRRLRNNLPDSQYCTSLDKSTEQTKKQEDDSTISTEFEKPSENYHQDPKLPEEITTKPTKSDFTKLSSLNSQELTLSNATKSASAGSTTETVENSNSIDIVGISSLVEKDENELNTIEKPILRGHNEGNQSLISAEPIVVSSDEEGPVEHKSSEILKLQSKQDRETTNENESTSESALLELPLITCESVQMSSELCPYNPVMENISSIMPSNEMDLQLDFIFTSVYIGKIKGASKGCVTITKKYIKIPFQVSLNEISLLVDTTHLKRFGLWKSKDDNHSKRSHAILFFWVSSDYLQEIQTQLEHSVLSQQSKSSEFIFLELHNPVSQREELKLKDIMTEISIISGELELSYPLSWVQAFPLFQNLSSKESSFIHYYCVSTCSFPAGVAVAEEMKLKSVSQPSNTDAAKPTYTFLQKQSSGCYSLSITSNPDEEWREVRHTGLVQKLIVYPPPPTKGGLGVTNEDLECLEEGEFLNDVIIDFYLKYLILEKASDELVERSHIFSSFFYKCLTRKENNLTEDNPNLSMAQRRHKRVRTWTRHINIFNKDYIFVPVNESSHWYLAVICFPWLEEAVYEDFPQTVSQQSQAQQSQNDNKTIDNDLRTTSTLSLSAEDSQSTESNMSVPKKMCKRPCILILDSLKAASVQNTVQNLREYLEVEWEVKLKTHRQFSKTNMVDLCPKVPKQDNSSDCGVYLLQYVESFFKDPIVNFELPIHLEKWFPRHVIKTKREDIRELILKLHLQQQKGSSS

[14] = target: T5, Sentrin-specific protease 8 (Homo sapiens, UniProt Q96LD8); assay: SENP8 protease inhibitors, SAR follow-up, biochemical, luminescence, set 2 (AID 588601); format: functional
T5 sequence (Q96LD8 whole entry): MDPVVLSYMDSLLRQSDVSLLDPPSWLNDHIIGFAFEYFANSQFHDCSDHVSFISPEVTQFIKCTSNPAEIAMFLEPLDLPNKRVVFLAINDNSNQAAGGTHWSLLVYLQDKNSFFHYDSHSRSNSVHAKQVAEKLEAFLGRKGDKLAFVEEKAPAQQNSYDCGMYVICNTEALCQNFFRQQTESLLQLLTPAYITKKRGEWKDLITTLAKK

[15] = nonselective inhibitors of cellular cAMP signaling, dose response, counter-screen for MC4R biased antagonist project, cell-based, TR-FRET cAMP detection (AID 602305); format: functional;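 further: U2OS cells stimulated with forskolin near its EC80 as the cAMP inducer; potency is for inhibition of forskolin-stimulated cAMP signaling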
Streptokinase A = target: T6, Streptokinase A (Streptococcus pyogenes serotype M1, UniProt P10520); assay: S. pyogenes streptokinase expression inhibitors, potency, dose response, plasminogen activation absorbance, OD405 (AID 1914); format: functional, Streptococcus pyogenes M1 GAS;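 further: secreted streptokinase activity via plasminogen activation per viability signal from cell pellet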
T6 sequence (P10520 whole entry): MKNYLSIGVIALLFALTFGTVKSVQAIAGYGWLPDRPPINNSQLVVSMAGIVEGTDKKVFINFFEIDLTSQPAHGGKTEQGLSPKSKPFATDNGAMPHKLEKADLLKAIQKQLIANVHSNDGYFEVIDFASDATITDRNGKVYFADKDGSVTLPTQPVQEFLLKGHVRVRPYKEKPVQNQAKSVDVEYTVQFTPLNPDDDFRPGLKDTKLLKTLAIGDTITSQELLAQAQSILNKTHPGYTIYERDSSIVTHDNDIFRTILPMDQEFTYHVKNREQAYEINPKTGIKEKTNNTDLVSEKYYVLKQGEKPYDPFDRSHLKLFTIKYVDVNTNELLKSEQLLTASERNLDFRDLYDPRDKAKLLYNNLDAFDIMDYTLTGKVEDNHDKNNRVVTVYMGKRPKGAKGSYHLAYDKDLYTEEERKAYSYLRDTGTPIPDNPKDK

Melanocortin receptor 4 = Melanocortin receptor 4 (Homo sapiens, UniProt P32245); assay: MC4R antagonist potency on cAMP, dose response, cell-based, TR-FRET, biased antagonists (AID 602298); format: functional;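 further: antagonist potency against agonist-stimulated cAMP production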
Melanocortin receptor 4, sequence (P32245 whole entry): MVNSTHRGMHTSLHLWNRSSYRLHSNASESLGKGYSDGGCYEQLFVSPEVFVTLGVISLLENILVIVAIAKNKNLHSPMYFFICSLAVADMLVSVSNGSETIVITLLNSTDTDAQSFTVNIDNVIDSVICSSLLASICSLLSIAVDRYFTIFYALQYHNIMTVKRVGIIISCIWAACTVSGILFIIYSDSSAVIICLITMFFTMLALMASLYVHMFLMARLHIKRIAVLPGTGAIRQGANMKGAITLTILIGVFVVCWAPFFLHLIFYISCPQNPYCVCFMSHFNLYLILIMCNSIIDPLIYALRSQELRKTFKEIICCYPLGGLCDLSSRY

Mu-type opioid receptor = Mu-type opioid receptor (Homo sapiens, UniProt P35372); assay: Counterscreen for agonists of heterodimerization of the mu 1 (OPRM1) and delta 1 (OPRD1) opioid receptors: Luminescence-based cell-based high throughput dose response assay to identify agonists of OPRM1 homodimerization.; format: functional;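 further: U2OS cells expressing OPRM1 and beta-arrestin as split beta-galactosidase partners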
Mu-type opioid receptor, sequence (P35372 whole entry): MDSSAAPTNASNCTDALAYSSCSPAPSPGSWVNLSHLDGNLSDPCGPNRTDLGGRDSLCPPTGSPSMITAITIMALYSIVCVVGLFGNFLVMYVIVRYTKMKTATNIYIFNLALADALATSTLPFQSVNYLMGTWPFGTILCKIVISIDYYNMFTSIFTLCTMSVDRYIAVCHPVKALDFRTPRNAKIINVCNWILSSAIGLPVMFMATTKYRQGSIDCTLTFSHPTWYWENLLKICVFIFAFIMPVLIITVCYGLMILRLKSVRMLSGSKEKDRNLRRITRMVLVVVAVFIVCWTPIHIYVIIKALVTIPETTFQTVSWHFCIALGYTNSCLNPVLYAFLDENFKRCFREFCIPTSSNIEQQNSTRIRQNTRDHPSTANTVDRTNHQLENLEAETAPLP

[16] = system: Streptococcus sp. 'group A'; assay: growth inhibition of control SK(-) GAS strain, dose response, counter-screen for streptokinase expression inhibitor project, luminescence, kanamycin, BacTiterGlo, confirmation (AID 1900); format: functional, organism-based
Streptococcus = assay: Group A Streptococcus viability loss, dose response, counter-screen for streptokinase expression inhibitor project, luminescence, BacTiterGlo (AID 1915); format: functional, organism-based;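 further: potency for reduction of bacterial viability or growth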
A-375 [17] = assay: MITF: Counter assay: A375 proliferation Measured in Cell-Based System Using Plate Reader - 2084-03_Inhibitor_Dose_DryPowder_Activity. [Related pubchem assays (depositor defined):AID488944]; format: functional; settings: Homo sapiens
[18] = target: 5-hydroxytryptamine receptor 5A (Homo sapiens, UniProt P47898); assay: Counterscreen for agonists of OPRM1-OPRD1 heterodimerization: luminescence-based cell-based high throughput dose response assay to identify agonists of 5-hydroxytryptamine (serotonin) 5A receptor (HTR5A). [Related pubchem assays (depositor defined):AID504326, AID504355, AID504692, AID504904, AID504905]; format: functional
5-hydroxytryptamine receptor 5A, sequence (P47898 whole entry): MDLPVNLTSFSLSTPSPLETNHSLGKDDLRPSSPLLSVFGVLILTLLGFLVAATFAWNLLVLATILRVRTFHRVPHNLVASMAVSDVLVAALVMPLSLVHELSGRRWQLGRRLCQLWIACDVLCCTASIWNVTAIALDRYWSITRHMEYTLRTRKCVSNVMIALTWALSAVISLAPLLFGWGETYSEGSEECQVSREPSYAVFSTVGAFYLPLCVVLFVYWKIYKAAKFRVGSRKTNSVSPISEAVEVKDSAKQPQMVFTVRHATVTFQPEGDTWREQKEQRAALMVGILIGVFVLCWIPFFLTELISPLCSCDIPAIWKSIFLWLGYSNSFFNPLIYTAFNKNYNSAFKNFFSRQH

[19] = target: Delta-type opioid receptor (Homo sapiens, UniProt P41143); assay: Counterscreen for agonists of heterodimerization of the mu 1 (OPRM1) and delta 1 (OPRD1) opioid receptors: Luminescence-based cell-based high throughput dose response assay to identify agonists of OPRD1 homodimerization. [Related pubchem assays (depositor defined):AID504326, AID504355, AID504692, AID504904, AID504905]; format: functional
Delta-type opioid receptor, sequence (P41143 whole entry): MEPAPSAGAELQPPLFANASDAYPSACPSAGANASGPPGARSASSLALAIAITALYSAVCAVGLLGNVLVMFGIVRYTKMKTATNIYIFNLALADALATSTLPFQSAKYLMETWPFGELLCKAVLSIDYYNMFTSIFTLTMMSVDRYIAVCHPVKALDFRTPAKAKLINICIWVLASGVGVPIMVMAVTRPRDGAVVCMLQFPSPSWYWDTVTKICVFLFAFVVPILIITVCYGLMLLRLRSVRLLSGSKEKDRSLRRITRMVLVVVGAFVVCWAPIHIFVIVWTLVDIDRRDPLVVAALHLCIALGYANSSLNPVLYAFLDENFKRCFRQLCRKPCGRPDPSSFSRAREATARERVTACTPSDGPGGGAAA

[20] = target: Neurotensin receptor type 1 (Homo sapiens, UniProt P30989); format: functional;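 further: Image-based confirmatory dose-response assay measuring agonist activity at NTR1; NTR1-expressing U2OS osteosarcoma cells imaged for beta-arrestin GFP spot formation; agonist potency where compounds increase beta-arrestin recruitment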
Neurotensin receptor type 1, sequence (P30989 whole entry): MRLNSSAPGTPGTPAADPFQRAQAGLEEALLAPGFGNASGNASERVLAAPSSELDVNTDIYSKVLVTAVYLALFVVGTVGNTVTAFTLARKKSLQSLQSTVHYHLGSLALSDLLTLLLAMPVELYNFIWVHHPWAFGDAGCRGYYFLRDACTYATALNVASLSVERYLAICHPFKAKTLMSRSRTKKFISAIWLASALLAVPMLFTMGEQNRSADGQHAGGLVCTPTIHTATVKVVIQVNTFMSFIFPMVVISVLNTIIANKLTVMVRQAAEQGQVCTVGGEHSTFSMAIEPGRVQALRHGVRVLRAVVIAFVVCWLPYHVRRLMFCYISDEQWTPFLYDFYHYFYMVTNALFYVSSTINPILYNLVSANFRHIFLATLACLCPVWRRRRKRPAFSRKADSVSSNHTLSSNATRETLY

Cc1ccc(NC2=C(Cl)C(=O)c3ccccc3C2=O)cc1
active: AC50 [1] 1.17 µM | EC50 [2] 10.7 µM | EC50 [3] 4.88 µM | AC50 (A-375 [4]) 12.6 µM | AC50 [5] 5.25 µM

O=C(OCCN1C(=O)c2cccc3c(N4CCOCC4)ccc(c23)C1=O)c1ccccc1Cl
inconclusive: EC50 (BJ [6]) > 150 µM
active: AC50 [7] 6.25 µM | EC50 (BJ [8]) 17.2 µM | EC50 (BJ [9]) 21.5 µM | AC50 [10] 3.06 µM | EC50 [11] 18.8 µM
inactive: IC50 (Cysteine protease ATG4B) > 80 µM | IC50 (Phospholipase A2) > 80 µM

Cc1[nH]c2ccccc2c1C(=O)C(=O)NCCCN1CCOCC1
inactive: IC50 (Caspase-3) > 99 µM | IC50 [12] > 99 µM | IC50 [13] > 99 µM | IC50 [14] > 99 µM

CN(C)S(=O)(=O)c1ccc(-c2csc(N/N=C/c3ccc(O)cc3)n2)cc1
active: EC50 [16] 8.68 µM | EC50 (Streptococcus) 13.3 µM | AC50 (A-375 [17]) 30.8 µM | AC50 [5] 4.6 µM | EC50 [20] 6.62 µM
inactive: IC50 [15] > 64.6 µM | IC50 (Melanocortin receptor 4) > 64.6 µM | EC50 (Mu-type opioid receptor) > 92.5 µM | EC50 [18] > 92.5 µM | EC50 [19] > 92.5 µM
> 150 µM (not active): EC50 (Streptokinase A)
